Source: ChEMBL document CHEMBL3091439, “Further discovery of caffeic acid derivatives as novel influenza neuraminidase inhibitors” (Bioorg Med Chem, 2013)

Legend:
Neuraminidase [1] = biological target: T1, Neuraminidase (Influenza A virus, UniProt B4URF0); test: Inhibition of Influenza A virus (A/Chicken/Shandong/LY/08(H9N2)) neuraminidase using 4-MU-NANA as substrate incubated for 5 mins prior to substrate addition measured after 30 to 60 mins by fluorescence assay; parameters: species or system Influenza A virus (A/chicken/Shandong/LY/2008(H9N2))
Neuraminidase [2] = biological target: T1, Neuraminidase; test: Inhibition of influenza A virus A/duck/China/QJ/01(H5N1) neuraminidase using 4-MU-NANA as substrate incubated for 5 mins prior to substrate addition measured after 30 to 60 mins by fluorescence assay
[3] = Cytotoxicity against chicken embryo fibroblasts infected with Influenza A virus (A/Chicken/Shandong/LY/08(H9N2)) preincubated for 1 hr followed by viral-infection measured after 2 days by MTS assay; assay type: cell-based, Gallus gallus, Fibroblast
Influenza A virus = test: Antiviral activity against Influenza A virus (A/Chicken/Shandong/LY/08(H9N2)) infected in chicken embryo fibroblasts assessed as protection against virus-induced cytopathic effect preincubated for 1 hr followed by viral-infection measured after 2 days by MTS assay; assay type: functional, organism-based, Influenza A virus (A/chicken/Shandong/LY/2008(H9N2))
Neuraminidase [4] = biological target: T1, Neuraminidase; test: Non competitive inhibition of Influenza A virus (A/Chicken/Shandong/LY/08(H9N2)) neuraminidase using 4-MU-NANA as substrate incubated for 5 mins prior to substrate addition measured after 30 to 60 mins by Lineweaver-Burk plot analysis; parameters: species or system Influenza A virus (A/chicken/Shandong/LY/2008(H9N2))
Neuraminidase [5] = biological target: T1, Neuraminidase; test: Non competitive inhibition of influenza A virus A/duck/China/QJ/01(H5N1) neuraminidase using 4-MU-NANA as substrate incubated for 5 mins prior to substrate addition measured after 30 to 60 mins by Lineweaver-Burk plot analysis

| SMILES | IC50 (Neuraminidase [1]) [µM] | IC50 (Neuraminidase [2]) [µM] | CC50 at 48 h [3] [µM] | EC50 (Influenza A virus) [µM] | Ki (Neuraminidase [4]) [µM] | Ki (Neuraminidase [5]) [µM] |
| --- | --- | --- | --- | --- | --- | --- |
| CCC(CC)C(=O)Nc1cc(NC(=O)[C@H](CC(C)C)NC(=O)/C=C/c2ccc(O)c(O)c2)ccc1OCC(=O)O | 8.5 | 14 | 89.7 | 13.5 |  |  |
| CCC(CC)C(=O)Nc1cc(NC(=O)C(C)C)c(NC(=N)N)cc1OCC(=O)O | 83.2 |  |  |  |  |  |
| CCC(CC)C(=O)Nc1cc(NC(=O)NCc2ccccc2)ccc1OCC(=O)O | 49.7 | 55.6 |  |  |  |  |
| C#CCNC(=O)Nc1ccc(OCC(=O)O)c(NC(=O)C(CC)CC)c1 | 89.8 |  |  |  |  |  |
| CCC(CC)C(=O)Nc1cc(NC(=O)N[C@H](CC)CO)ccc1OCC(=O)O | > 100 |  |  |  |  |  |
| CCC(CC)C(=O)Nc1cc(NC(C)=O)c(NC(=O)/C=C/c2ccc(O)c(O)c2)cc1OCC(=O)O | 3.2 | 10.7 | > 100 | 13.8 | 2.7 |  |
| CCC(CC)C(=O)Nc1cc(NC(=O)C(C)C)c(NC(=O)/C=C/c2ccc(O)c(O)c2)cc1OCC(=O)O | 5.8 | 14.2 | > 100 | 14.5 |  |  |
| CCC(CC)CN(C(=O)/C=C/c1ccc(O)c(O)c1)c1ccc(OCC(=O)O)c(NC(=O)C(CC)CC)c1 | 25.2 | 11.3 | > 100 | 56.4 |  |  |
| CCC(CC)C(=O)Nc1cc(N(Cc2cccs2)C(=O)/C=C/c2ccc(O)c(O)c2)ccc1OCC(=O)O | 24.1 | 16.4 | 87.6 |  |  |  |
| CCC(CC)C(=O)Nc1cc(N(Cc2ccccc2)C(=O)/C=C/c2ccc(O)c(O)c2)ccc1OCC(=O)O | 16 | 11.4 | 78.2 |  |  | 32.5 |
| CCC(CC)C(=O)Nc1cc(NC(=O)CNC(=O)/C=C/c2ccc(O)c(O)c2)ccc1OCC(=O)O | 9.2 | 17.6 | > 100 | 33.6 |  |  |
| CCC(CC)C(=O)Nc1cc(NC(=O)[C@H](C)NC(=O)/C=C/c2ccc(O)c(O)c2)ccc1OCC(=O)O | 7.9 | 16.1 | > 100 | 25.4 |  | 9.5 |
| CCC(CC)C(=O)Nc1cc(NC(=O)[C@@H](NC(=O)/C=C/c2ccc(O)c(O)c2)C(C)C)ccc1OCC(=O)O | 9.4 | 16.6 | 70.4 | 22.9 |  |  |
| CCC(CC)C(=O)Nc1cc(NC(=O)[C@H](Cc2ccccc2)NC(=O)/C=C/c2ccc(O)c(O)c2)ccc1OCC(=O)O | 9.8 | 16.2 | 68.3 |  |  |  |
| CCC(CC)C(=O)Nc1cc(NC(C)=O)c(NC(=O)CCc2ccc(O)c(O)c2)cc1OCC(=O)O | 15.8 | 42.7 | 47.2 |  |  |  |
| CCC(CC)C(=O)Nc1cc(NC(=O)C(C)C)c(NC(=O)CCc2ccc(O)c(O)c2)cc1OCC(=O)O | 14.2 | 38.2 |  |  |  |  |
| CCC(CC)C(=O)Nc1cc(NC(C)=O)c(NC(=N)N)cc1OCC(=O)O | 69.1 | 75.8 |  |  |  |  |
| CCC(CC)C(=O)Nc1cc(NC(=O)C(C)C)c(N)cc1OCC(=O)O | 54.3 | 61.2 |  |  |  |  |
| CCC(CC)C(=O)Nc1cc(NC(C)=O)c(N)cc1OCC(=O)O | 46.4 | 58.5 |  |  |  |  |
| CCC(CC)C(=O)Nc1cc(NC(=N)N)ccc1OCC(=O)O | > 100 |  |  |  |  |  |
| CCC(CC)C(=O)Nc1cc(N)ccc1OCC(=O)O | > 100 |  |  |  |  |  |
| CCC(CC)C(=O)Nc1cc(NC(=O)c2ccco2)ccc1OCC(=O)O | > 100 |  |  |  |  |  |
| CCC(CC)C(=O)Nc1ccc(OCC(=O)O)c(NC(=O)C(CC)CC)c1 | > 100 |  |  |  |  |  |
| CCC(CC)C(=O)Nc1cc(NS(=O)(=O)c2ccc(C)cc2)ccc1OCC(=O)O | 78.6 | 86.7 |  |  |  |  |
